According to patent US5578445A, “In vitro method of evaluating the effects of a substance” (priority 1991, dated 1996):

Columns and labels:
MCF7 = experiment: Proliferation, amount of ATP after 6 days, MCF7
estrogen receptor [1] = molecular target: T1, estrogen receptor (Homo sapiens, UniProt P03372); experiment: pS2 secretion, additional set of experiments, ZR 75-1 in 96-well trays, pS2 RIA; details: for relative amount of pS2 (no hormone added = 1): zr 75-1 cells, 48 h
T1 sequence (P03372 1-595): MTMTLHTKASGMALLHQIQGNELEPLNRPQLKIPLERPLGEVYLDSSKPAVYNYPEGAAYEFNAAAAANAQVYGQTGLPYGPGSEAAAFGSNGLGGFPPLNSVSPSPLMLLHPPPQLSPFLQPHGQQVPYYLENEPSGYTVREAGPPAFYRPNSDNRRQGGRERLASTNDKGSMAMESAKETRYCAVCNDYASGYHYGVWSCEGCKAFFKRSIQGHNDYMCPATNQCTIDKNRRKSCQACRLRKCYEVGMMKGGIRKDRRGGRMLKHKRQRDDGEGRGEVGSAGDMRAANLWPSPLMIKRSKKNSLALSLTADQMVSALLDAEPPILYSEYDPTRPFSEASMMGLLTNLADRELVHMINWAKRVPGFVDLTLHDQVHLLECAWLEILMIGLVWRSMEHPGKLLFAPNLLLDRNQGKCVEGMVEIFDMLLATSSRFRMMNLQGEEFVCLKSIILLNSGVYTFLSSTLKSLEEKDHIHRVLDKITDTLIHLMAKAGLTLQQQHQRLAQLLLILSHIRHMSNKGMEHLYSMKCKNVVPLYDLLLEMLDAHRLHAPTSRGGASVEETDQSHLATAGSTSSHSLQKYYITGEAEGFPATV
Procedure: (§1) The amount of pS2 secreted into the medium was determined with the aid of a commercial RIA (ELSA pS2 from CIS Bioindustries, Gif-sur-Yvette, France).
(§2) Samples of the cells ZR 75-1 and MCF7, respectively, were distributed into plastic petridishes (suitable for the culturing of mammalian cells).
(§3) Samples of the cells ZR 75-1 ([…]) and MCF7 (2.5×10^4 cells/well), respectively, were distributed in 96-well trays. The cells were distributed in the same medium as used on day 1.
(§4) The wells were washed with 100 μl Coon's medium/well. The first medium was replaced by the second medium (B) without 1% FCS. The following hormone additions were made:
(§5) 48 hours after the hormone addition the number of cells and their morphology were investigated. Medium from each well was transferred to Eppendorf tubes. The possible amount of pS2 in the medium samples was analyzed with the aid of a commercial pS2 RIA (ELSA pS2 ).

estrogen receptor [2] = molecular target: T1, estrogen receptor; experiment: Cathepsin D secretion into medium, MCF7 in petridishes, Cath D RIA
Procedure: The experiment was conducted using the human breast cancer cell line MCF7 (ATCC HTB 22). The selected cellular response to be analyzed was the amount of expressed cathepsin D (Cath D), the expression of which is regulated by the estrogen receptor. […] The amount of Cath D secreted into the medium was determined with the aid of a commercial RIA (ELSA-CATH-D from CIS Bioindustries, Gif-sur-Yvette, France). The performance of the method is as follows:
A sample of the cell line MCF7 (4×10^5 cells) was distributed into plastic petridishes (suitable for the culturing of mammalian cells). The cells were suspended in the first medium (C).
The petridishes were incubated at 37° C. and 5% CO2 in a temperature and humidity controlled chamber.
The first medium (C) was replaced by the second medium, which consisted of fresh first medium (C). The following hormone additions were made:
The petridishes were incubated in the temperature and humidity controlled chamber under the same conditions as above.
72 hours after the hormone addition visual inspection of the number of cells and their morphology was performed. Medium from each petridish was transferred to Eppendorf tubes and centrifuged 7 minutes at 1000rpm (Eppendorf centrifuge). The amount of Cath D in the medium samples was analyzed with the aid of the commercial Cath D RIA (ELSA-CATH D)

estrogen receptor [3] = molecular target: T1, estrogen receptor; experiment: pS2 secretion, additional set of experiments, MCF7 in 96-well trays, pS2 RIA; details: for relative amount of pS2 (no hormone added = 1): mcf7 cells, 48 h
Procedure: as §1, §2, §3, §4, §5

estrogen receptor [4] = molecular target: T1, estrogen receptor; experiment: Cathepsin D secretion, additional set of experiments, MCF7 in 96-well trays, Cath D RIA
Procedure: The amount of Cath D secreted into the medium was determined with the aid of a commercial RIA (ELSA-CATD-D from CIS Bio-industries, Gif-sur-Yvette, France).
as §2
Samples of the cells ZR 75-1 (4×10^4 cells/well) and MCF7 (2.5×10^4 cells/well), respectively, were distributed in 96-well trays. The cells were distributed in the same medium as used on day 1.
as §4
48 hours after the hormone addition the number of cells and their morphology were investigated. Medium from each well was transferred to Eppendorf tubes. The possible amount of Cath D in the medium samples was analyzed with the aid of a commercial Cath D RIA (ELSA-CATH-D).

[5] = ZR-75-1, 48 h, read-out: relative amount of pS2 (no hormone added = 1)
[6] = MCF7, 48 h, read-out: relative amount of pS2 (no hormone added = 1)

Work on `O=C(c1ccc(OCCN2CCCC2)cc1)c1c(-c2ccc(O)cc2)sc2cc(O)ccc12` [LY 117018] yielded an activity at 1 µM (MCF7; Homo sapiens, MCF7, 144 h, read-out: relative amount of ATP (no hormone added = 1), MCF7, + 10^-6 M LY 117018, -E2, 6 days) of 27%, an activity at 0.1 µM (MCF7; Homo sapiens, MCF7, 144 h, read-out: relative amount of ATP (no hormone added = 1), MCF7, + 10^-7 M LY 117018, -E2, 6 days) of 89% and an activity at 0.01 µM (MCF7; Homo sapiens, MCF7, 144 h, read-out: relative amount of ATP (no hormone added = 1), MCF7, + 10^-8 M LY 117018, -E2, 6 days) of 89%. For the same compound, the activity at 0.001 µM (MCF7; Homo sapiens, MCF7, 144 h, read-out: relative amount of ATP (no hormone added = 1), MCF7, + 10^-9 M LY 117018, -E2, 6 days) was 85%, the inhibition of growth (MCF7; MCF7, 0.1 nM E2 and 10 nM LY 117018) was “inhibited down to the same level as in the absence of added hormone” and the function on growth (MCF7; MCF7, 10^-7 M LY 117018, presence of 10^-10 M E2) was “functions as an antagonist”. For the same compound, the “antagonist strength compared with Tamoxifen, growth” value (MCF7; MCF7, presence of 0.1 nM E2) was “stronger antagonist than Tamoxifen”, the “inhibition of the expression of pS2” value (estrogen receptor [1]; ZR 75-1, 10 nM LY 117018 and 0.1 nM E2) was “inhibited down to the same level as in the absence of added hormone” and the “function on pS2 expression” value (estrogen receptor [1]; ZR 75-1, 10^-8 M LY 117018, presence of 10^-10 M E2) was “functions as an antagonist”. The “antagonist strength compared with Tamoxifen, pS2” value (estrogen receptor [1]; ZR 75-1, presence of 0.1 nM E2) was “stronger antagonist than Tamoxifen”, the “influence on the pS2 secretion” value (estrogen receptor [1]; ZR 75-1, substance alone, without E2) was “do not have an influence” and the fold induction at 0.001 µM (estrogen receptor [1]; [5]) was 0.9. The fold induction at 0.01 µM (estrogen receptor [1]; [5]) was 0.86, the fold induction at 0.1 µM (estrogen receptor [1]; [5]) was 0.78 and the fold induction at 1 µM (estrogen receptor [1]; [5]) was 0.75. For the same compound, the “relative amount of pS2 (no hormone added = 1)” value (estrogen receptor [1]; 0.001 µM) was 1.96, the “relative amount of pS2 (no hormone added = 1)” value (estrogen receptor [1]; 0.01 µM) was 0.84 and the “relative amount of pS2 (no hormone added = 1)” value (estrogen receptor [1]; 0.1 µM) was 0.91. For the same compound, the “relative amount of pS2 (no hormone added = 1)” value (estrogen receptor [1]; 1 µM) was 0.83, the fold induction at 0.1 µM (estrogen receptor [2]; MCF7, 72 h, read-out: relative amount of Cath D (no hormone added = 1)) was 0.88 and the “function on Cath D expression” value (estrogen receptor [2]; MCF7, 10^-7 M LY 117018, both in the absence and in the presence of 10^-8 M E2) was “acts as an estrogen antagonist”. For the same compound, the fold induction at 0.001 µM (estrogen receptor [3]; [6]) was 0.89, the fold induction at 0.01 µM (estrogen receptor [3]; [6]) was 1 and the fold induction at 0.1 µM (estrogen receptor [3]; [6]) was 0.93. The fold induction at 1 µM (estrogen receptor [3]; [6]) was 1, the “inhibition of the expression of pS2” value (estrogen receptor [3]; MCF7, 10 nM LY 117018 and 0.1 nM E2) was “inhibited down to the same level as in the absence of added hormone” and the “function on pS2 expression” value (estrogen receptor [3]; MCF7, 10^-8 M LY 117018, presence of 10^-10 M E2) was “functions as an antagonist”. The “antagonist strength compared with Tamoxifen, pS2” value (estrogen receptor [3]; MCF7, presence of 0.1 nM E2) was “stronger antagonist than Tamoxifen”, the “influence on the pS2 secretion” value (estrogen receptor [3]; MCF7, substance alone, without E2) was “do not have an influence” and the “relative amount of pS2 (no hormone added = 1)” value (estrogen receptor [3]; 0.001 µM) was 2.01. For the same compound, the “relative amount of pS2 (no hormone added = 1)” value (estrogen receptor [3]; 0.01 µM) was 1.11, the “relative amount of pS2 (no hormone added = 1)” value (estrogen receptor [3]; 0.1 µM) was 1.19 and the “relative amount of pS2 (no hormone added = 1)” value (estrogen receptor [3]; 1 µM) was 1.18. For the same compound, the “inhibition of the expression of Cath D” value (estrogen receptor [4]; 10 nM LY 117018 and 0.1 nM E2) was “inhibited down to same level as in the absence of added hormone”, the “function on Cath D expression” value (estrogen receptor [4]; 10^-8 M LY 117018, presence of 10^-10 M E2) was “functions as an antagonist” and the “antagonist strength compared with Tamoxifen, Cath D” value (estrogen receptor [4]; presence of 0.1 nM E2) was “stronger antagonist than Tamoxifen”. For the same compound, the “influence on the Cath D secretion” value (estrogen receptor [4]; substance alone, without E2) was “do not have an influence”.
